Measurements from ChEMBL document CHEMBL3045083, “Insect growth regulators as potential insecticides to control olive fruit fly (Bactrocera oleae Rossi): insect toxicity bioassays and molecular docking approach” (2013).

Assays:
Type in all cases: functional
[1] = test system: Bactrocera oleae; assay: Insecticidal activity against Bactrocera oleae assessed as insect mortality after 24 hr
[2] = test system: Bactrocera oleae; assay: Insecticidal activity against Bactrocera oleae assessed as insect mortality at 96 mg Ai/L applied through residual contact on glass surfaces measured after 7 days (reference value: 4.0 +/- 4.0%); conditions: 168 h
[3] = test system: Bactrocera oleae; assay: Insecticidal activity against Bactrocera oleae assessed as insect mortality at 96 mg Ai/L applied through residual contact on glass surfaces measured after 24 hr (reference value: 2.0 +/- 2.0%)
[4] = test system: Bactrocera oleae; assay: Insecticidal activity against Bactrocera oleae assessed as insect survival lifespan at 96 mg Ai/L applied through oral ingestion (reference value: 79.7 +/- 12.2 days)
[5] = test system: Bactrocera oleae; assay: Insecticidal activity against Bactrocera oleae assessed as insect mortality at 96 mg Ai/L applied through oral ingestion measured after 15 days (reference value: 2.5 +/- 2.5%); conditions: 360 h
[6] = test system: Bactrocera oleae; assay: Insecticidal activity against Bactrocera oleae assessed as insect mortality at 96 mg Ai/L applied through oral ingestion measured after 7 days (reference value: 2.5 +/- 2.5%); conditions: 168 h
[7] = test system: Bactrocera oleae; assay: Insecticidal activity against Bactrocera oleae assessed as insect mortality at 96 mg Ai/L applied through oral ingestion measured after 24 hr (reference value: 0%)
[8] = test system: Bactrocera oleae; assay: Insecticidal activity against Bactrocera oleae assessed as insect mortality at 96 mg Ai/L applied through residual contact on glass surfaces measured after 15 days (reference value: 45.8 +/- 16.3%); conditions: 360 h
[9] = test system: Anastrepha suspensa; assay: Insecticidal activity against Anastrepha suspensa assessed as reduction in egg viability administered through diet ingestion measured after 8 to 10 days
[10] = test system: Anastrepha suspensa; assay: Insecticidal activity against Anastrepha suspensa assessed as insect mortality administered through diet ingestion measured after 12 to 14 days
[11] = test system: Bactrocera oleae; assay: Insecticidal activity against Bactrocera oleae assessed as insect mortality at 180 mg Ai/L applied through residual contact on glass surfaces measured after 24 hr (reference value: 2.0 +/- 2.0%)
[12] = test system: Bactrocera oleae; assay: Insecticidal activity against Bactrocera oleae assessed as insect survival lifespan at 180 mg Ai/L applied through oral ingestion (reference value: 79.7 +/- 12.2 days)
[13] = test system: Bactrocera oleae; assay: Insecticidal activity against Bactrocera oleae assessed as insect mortality at 180 mg Ai/L applied through oral ingestion measured after 15 days (reference value: 2.5 +/- 2.5%); conditions: 360 h
[14] = test system: Bactrocera oleae; assay: Insecticidal activity against Bactrocera oleae assessed as insect mortality at 180 mg Ai/L applied through oral ingestion measured after 7 days (reference value: 2.5 +/- 2.5%); conditions: 168 h
[15] = test system: Bactrocera oleae; assay: Insecticidal activity against Bactrocera oleae assessed as insect mortality at 180 mg Ai/L applied through oral ingestion measured after 24 hr (reference value: 0%)
[16] = test system: Bactrocera oleae; assay: Insecticidal activity against Bactrocera oleae assessed as insect mortality at 180 mg Ai/L applied through residual contact on glass surfaces measured after 15 days (reference value: 45.8 +/- 16.3%); conditions: 360 h
[17] = test system: Bactrocera oleae; assay: Insecticidal activity against Bactrocera oleae assessed as insect mortality at 180 mg Ai/L applied through residual contact on glass surfaces measured after 7 days (reference value: 4.0 +/- 4.0%); conditions: 168 h

Structure (SMILES)	mortality [1]	mortality at 96 µg/mL [2]	mortality at 96 µg/mL [3]	Survival [4]	mortality at 96 µg/mL [5]	mortality at 96 µg/mL [6]	mortality at 96 µg/mL [7]	mortality at 96 µg/mL [8]	Activity [9]	mortality [10]	mortality at 180 µg/mL [11]	Survival [12]	mortality at 180 µg/mL [13]	mortality at 180 µg/mL [14]	mortality at 180 µg/mL [15]	mortality at 180 µg/mL [16]	mortality at 180 µg/mL [17]
CC[C@H]1CCC[C@H](O[C@H]2CC[C@H](N(C)C)[C@@H](C)O2)[C@@H](C)C(=O)C2=C[C@@H]3[C@@H](C=C(C)[C@@H]4C[C@@H](O[C@@H]5O[C@@H](C)[C@H](OC)[C@@H](OC)[C@H]5OC)C[C@@H]34)[C@@H]2CC(=O)O1.CC[C@H]1CCC[C@H](O[C@H]2CC[C@H](N(C)C)[C@@H](C)O2)[C@@H](C)C(=O)C2=C[C@@H]3[C@@H](C=C[C@@H]4C[C@@H](O[C@@H]5O[C@@H](C)[C@H](OC)[C@@H](OC)[C@H]5OC)C[C@@H]34)[C@@H]2CC(=O)O1	62%	–	–	–	–	–	–	–	–	–	–	–	–	–	–	–	–
COc1cccc(C(=O)NN(C(=O)c2cc(C)cc(C)c2)C(C)(C)C)c1C [METHOXYFENOZIDE]	–	0%	0%	8.6 days	2.5%	2.5%	2.5%	49.1%	–	–	–	–	–	–	–	–	–
CC(C)(C)N(NC(=O)c1ccccc1)C(=O)c1ccccc1 [RH-5849]	–	–	–	–	–	–	–	–	60%	>75%	0%	8.7 days	98.2%	31.8%	0%	100%	86%
CCc1ccc(C(=O)NN(C(=O)c2cc(C)cc(C)c2)C(C)(C)C)cc1 [TEBUFENOZIDE]	–	–	–	–	–	–	–	–	–	–	0%	66.9 days	0%	0%	0%	58%	18%
